Measurements as given in patent US20160223559A1, “TETRAZINE-CONTAINING COMPOUNDS AND SYNTHETIC METHODS THEREOF” (The Regents of the University of California, priority 2015, published 2016).
Each block holds one compound with its values, some of them ahead of it.

How the values were obtained:
[1] = Storage and solution stability; format: physicochemical; details: stored at −20° C. for several months
[2] = Solubility in DMF:PBS during kinetic measurement; format: physicochemical; details: DMF:PBS at DMF concentrations lower than 80%
Method: FIGS. 3A-3B. (E)-3-substituted-6-styryl-s-tetrazine reaction kinetics. FIG. 3A: Reaction scheme of (E)-cyclooct-4-enol and the series of tetrazines for kinetic characterization. Only one isomer is depicted for 15. FIG. 3B: Tetrazine kinetics were determined by reacting 1 mM tetrazine with an excess (10 mM) of (E)-cyclooct-4-enol in 50% DMF, 50% PBS 1×pH 7.4 buffer at 22° C. Second-order rate constants derived from the data are listed, and the corresponding curves for 2b, 2p, and 11 are shown in FIG. 4A. Tetrazine 2p was reacted in 80% DMF, 20% PBS due to its insolubility at lower DMF concentrations.
A NANODROP™ 2000c (Thermo Scientific) equipped with a cuvette reader and a stirrer was used in the kinetic measurements, and the disappearance of the tetrazine peak absorption around 520 nm was measured over time. Tetrazines at 1 mM were reacted with an excess 10 mM (E)-cyclooct-4-enol with the measurements commencing immediately upon (E)-cyclooct-4-enol addition (FIGS. 3A, 4A-4B). Solution conditions were maintained at 1:1 DMF:PBS pH 7.4 buffer (Sigma Life Science), and all the measurements were done at 22° C. room temperature. Tetrazine peak intensity at each time point was adjusted for background by extrapolation, as in the previous section. Tetrazine peak disappearance is shown as points in FIGS. 4A-4B, with the connecting lines resulting from the nonlinear fits made with Prism 6.0c. […]

[3] = Fluorescence assays: fluorogenic turn-on reaction with dienophiles; format: physicochemical; details: PBS pH 7.4, excitation at 480 nm
Method: All compounds were purified by HPLC and verified by LC-MS prior to quantitative activation experiments. Stock solutions in methanol were diluted into 1.5 mL of the appropriate solvent in a 1 cm×1 cm quartz cuvette. Measurements of solvent and pre-activation emission spectra for baseline values were made in at least triplicate, prior to addition of trans-cyclooctenol or cyclopropene 4 to initiate the fluorogenic reaction. 3-fold additional excess of trans-cyclooctenol and cyclopropene 4 were added for each fluorogenic reaction. Activation ratios were calculated from the peak emission intensity of the reaction product and the corresponding baseline intensity, and all the intensity data was background subtracted. Integration of the area under the emission intensity curves was used to validate the activation ratios.
Fluorescence emission of 2v, 5, 6 are depicted in FIG. 1A. All three compounds were dissolved in 2 μM phosphate-buffered saline (PBS) at pH 7.4. FIG. 5A depicts fluorescence emission of 2v in 2 μM phosphate-buffered saline (PBS) at pH 7.4. FIG. 5B depicts fluorescence emission of 2w, 7, 8. All three compounds were dissolved in 2 μM EtOH solution. […] FIG. 5C depicts fluorescence emission of 2w in 2 μM EtOH solution. FIG. 5D depicts fluorescence emission of 2x, 9, 10. […] FIG. 5E depicts fluorescence emission of 2x in 2 μM EtOH solution.

[4] = tested on: A33 antigens on live LS174T human colon carcinoma cells; test: Live-cell imaging of TCO-antibody pretargeted cells; format: cell-based; details: 5 μM probe, 30 minutes
Method: FIGS 1A-1D. Depicted in FIG. 1A are fluorescence emission spectra for compound 2v (lowest line) and compound 5 (middle line) and 6 (upper line) in PBS; excitation at 480 nm. FIG. 1B: Figure depicts equimolar solutions of compound 6 and 2v under excitation by a handheld UV lamp. FIGS. 1C-1D: Figures depict Live-cell imaging of LS174T cells. FIG. 1C: Cells were incubated (t=1 h) with 200 nM TCO-conjugated A33 antibodies, washed, and then imaged 30 minutes after the addition of 5 μM 2v. FIG. 1D: Cells lacking TCO were treated with 5 μM 2v for 30 minutes. Scale bar=[…] for both FIGS. 1C and 1D.
Cell culture and labeling. LS174T cells were grown in DMEM media supplemented with 10% fetal bovine serum, 1% L-glutamine, 1% penicillin/streptomycin. Cells were incubated in 5.0% carbon dioxide, 95% humidity at 37° C. The cells were grown in a T-75 tissue culture flask and seeded on a Lab-Tek II chamber slide two days prior to the experiment. A33 antibody (R&D Systems, MN) was modified by incubation with 50 equivalents of trans-cyclooctene NHS ester for 2 hours at room temperature. The A33 antibody was washed three times with 0.1M sodium bicarbonate buffer pH 8.3 using a 30 kDa spin filter before adding the antibody to the cells at a final concentration of 200 nM for 1 hour.
Image acquisition. […]

storage stability [1]: without noticeable decomposition
SMILES: Cc1nnc(CCOS(C)(=O)=O)nn1 [Cmpd 1a]

solubility [2]: insolubility
SMILES: C(=C\c1nnc(/C=C/c2ccccc2)nn1)/c1ccccc1 [Cmpd 2p]

SMILES: Cc1nnc(/C=C/c2ccc(C(=O)O)c(-c3c4cc(F)c(=O)cc-4oc4cc(O)c(F)cc34)c2)nn1 [Cmpd 2v]
increase in fluorescence intensity (turn-on) ([3]; after reaction with a TCO): 400 fold
increase in fluorescence intensity (turn-on) ([3]; after reaction with a cyclopropene): 135 fold
background staining ([4]; cells lacking targeted dienophile): negligible background staining
confocal imaging of targeted dienophiles ([4]; cells pretargeted with 200 nM TCO-conjugated A33 antibodies): readily revealed the location of targeted dienophiles
